{
  "source": "patent US9518988B2",
  "about": "“Antibodies and methods of using same for treating ErbB/ErbB ligands associated diseases” (Yeda Research and Development Co. Ltd., priority 2010, dated 2016)",
  "molecules": {"B1": {"name": "HB-EGF: EGF-like domain of HB-EGF expressed in bacteria as thioredoxin (TRX) fusion protein, used as immunogen (protein)", "chain": "DLQEADLDLLRVTLSSKPQALATPNKEEHGKRKKKGKGLGKKRDPCLRKYKDFCIHGECKYVKELRAPSCICHPGYHGERCHGLSL"}},
  "key": {"[1]": {"tested_on": "BxPC3 pancreatic tumor cells", "test": "Cell proliferation assay (MTT), BxPC3", "assay_type": "cell-based, human", "settings": "gemcitabine 50 mg/ml", "experimental": "(§1) FIGS. 4A-B depict effective inhibition of proliferation and tumorigenicity (in vitro and in vivo) of human pancreatic cancer cells by a combination of anti-TGFα and anti-HB-EGF mAbs. […] BxPC3 cells (2×10^4) were seeded in a 96-well plate and allowed to adhere overnight, prior to the addition of anti-TGFα or anti-HB-EGF mAbs (each at 30 μg/ml), or a mixture of both mAbs (each at 15 μg/ml). Cell proliferation was determined in hexaplicates after 96 hours using the MTT method. Averages±S.D. are shown. The experiment was repeated twice. […] Female nude mice (6 week old) were inoculated subcutaneously with 2×10^6 BxPC3 cells. […]\n(§2) FIGS. 5A-B depict effective inhibition of human pancreatic cancer cell growth (in vitro and in vivo) by a combination of two mAbs and chemotherapy. […] Of note, body weight monitoring detected no consistent trends and differences other than a slow gain of weight (data not shown).\nBxPC3 pancreatic tumor cells were plated on 96-well plates (2,000 cells/well), in hexaplicates. […] Proliferation was measured after 24, 48 and 72 hours using the MTT method as was previously described [Mossmann T. J., Immunol Methods. […] Absorbance was determined at 570 nm.\nBxPC3 pancreatic tumor cells were plated on 96-well plates (2,000 cells/well), in hexaplicates. […] Proliferation was measured after 24, 48 and 72 hours using the MTT method. […] Absorbance was determined at 570 nm."}, "[2]": {"tested_on": "BxPC3 xenografts", "test": "Anti-tumor activity in nude mice, BxPC3 xenografts", "assay_type": "in vivo", "settings": "two intraperitoneal injections (days 16 and 21), 150 mg/kg body weight", "experimental": "as §1, §2\n(§3) Female atymic NCr-nude mice (6 week old; Harlen, Israel) were inoculated subcutaneously with 2×10^6 human cancer cells. […] Tumor volumes were monitored twice a week, and body weights were measured once a week.\nas §3"}, "[3]": {"tested_on": "EGFR phosphorylation on tyrosine residues", "test": "Biological activity of purified recombinant ligands: EGFR phosphorylation on tyrosine residues", "assay_type": "cell-based", "settings": "TRX-TGFα 2, 20, 200 ng/ml; TRX-HB-EGF 3, 30, 300 ng/ml; 10 minute incubation", "experimental": "FIGS. 1A-E depict construction, expression and biological activity of recombinant EGF-like ligands and detection of TGFα blocking antibodies using a GPI-anchored TGFα. […] Residue numbers are indicated. […] Molecular weight markers are indicated in kilodaltons. […] Cells were seeded in a 24-well plate, washed and incubated with increasing concentrations of the purified fusion proteins (TRX-TGFα: 2, 20, 200 ng/ml; TRX-HB-EGF: 3, 30, 300 ng/ml). EGF (10 ng/ml) was used as a positive control. After 10 minute incubation, the cells were lysed, and cleared extracts were immunoblotted (IB) with an anti-phosphotyrosine (P-Tyr) antibody. […] Residue numbers refer to TGFα. Cysteine residues of the EGF-like domain are highlighted. […] Cells were seeded in a 24-well plate, washed and incubated with or without TGFα (5 ng/ml), and with increasing volumes of an anti-serum from TGFα-immunized mice (0.2, 2, 4, 6, 8 and 10 μl of serum diluted in 120 μl total; control: 10 μl serum from a naive animal). An anti-phosphotyrosine mAb was used to detect phosphorylated EGFR.\nCells were seeded in a 24-well plate. Twenty-four hours later, cells were washed and incubated with different agents. After ten minutes of incubation, the cells were lysed and cleared extracts were electrophoresed, then immunoblotted with an anti-phosphotyrosine mAb, an anti-EGFR mAb (HeLa) or with an anti-ErbB-3 mAb (T47D)."}},
  "data": [
    {"molecule": "Nc1ccn([C@@H]2O[C@H](CO)[C@@H](O)C2(F)F)c(=O)n1", "note": "[gemcitabine]", "values": [
      {"measurement": "growth inhibition of cultured BxPC3 cells (MTT), gemcitabine alone", "setting": "[1]", "result": "growth inhibitory effect"},
      {"measurement": "inhibition of tumor growth, BxPC3 xenografts", "setting": "[2]", "result": "more than 85%"}
    ]},
    {"molecule": "TGFα: EGF-like domain of TGFα expressed in bacteria as thioredoxin (TRX) fusion protein, used as immunogen", "values": [
      {"measurement": "ability to induce EGFR phosphorylation on tyrosine residues", "setting": "[3]", "result": "functionally active conformation"}
    ]},
    {"molecule": "B1", "values": [
      {"measurement": "ability to induce EGFR phosphorylation on tyrosine residues", "setting": "[3]", "result": "functionally active conformation"}
    ]}
  ]
}
